Test results: patent US10823735B2, “Monoclonal antibody for predicting tamoxifen response in breast cancer patients” (The University of Hong Kong, priority 2015, dated 2020)

Columns and labels:
[1] = system: ZR75-BQ323636.1 and MCF7-BQ323636.1; assay: MTT assay, tamoxifen response of BQ323636.1 overexpressing cell lines; type: cell-based, Human; conditions: BQ323636.1 overexpression versus empty vector cell lines
Method: Cell lines—Human breast cancer cell lines MCF7 and ZR-75-1 were purchased from American Type Culture Collection and were re-authenticated by short tandem repeat profiling (Zhang, Gong et al. 2013). MCF7 was cultured in Dulbecco's Modified Eagle's Medium supplemented with 10% FBS and 1% penicillin/streptomycin and ZR-75-1 was cultured in Improved Minimum Essential Medium (IMEM) supplemented with 5% FBS and 1% penicillin/streptomycin. LCC2 and AK-47 are the two tamoxifen resistant cell lines derived from MCF7 and ZR-75-1, respectively and were kindly provided by Dr. Robert Clarke (Georgetown University Medical School, Washington, D.C.) (Wong, Dai et al. 2006) and have been used in our previous study (Zhang, Gong et al. 2013). LCC2 and AK-47 were both cultured in IMEM supplemented with 5% charcoal-stripped FBS and 1% penicillin/streptomycin. All the cell lines used in this study have been passaged and kept fewer than 6 months after the re-authentication or thawing. […]
MTT assay—Cells were seeded at a density of 6×10^3 cells/well. […] Extinction of the samples was measured by the Infinite 200 microtiter plate reader (Tecan) at 570 nm with a reference wavelength at 750 nm. Background MTT readings were subtracted from the samples. […]

ZR75-vector = assay: Orthotopic nude mouse model, ZR75-vector; type: in vivo, nude mice; conditions: mammary fat pad, daily subcutaneous injection in peanut oil
Method: (§1) Orthotopic mouse model—The cell lines mixed with Matrigel (BD Biosciences) at the ratio of 1:1 were inoculated into the abdominal mammary fat pad of the 5 to 6 week old female nude mice. When the tumor were palpable, the mice were randomized into treatment and control groups where treatment groups received daily subcutaneous injection of tamoxifen (Sigma) dissolved in peanut oil (Sigma) and the control groups received subcutaneous injection of the solvent only. Tumor sizes were measured by caliper and tumor volume was calculated as (length*width*width)/2. Tumor growth rate was expressed as the % of tumor volume change calculated as the tumor volume measured at the indicated time point normalized against the tumor volume at day 0*100%. This protocol has been reviewed and approved by Committee on the Use of Live Animals in Teaching and Research (CULATR), the University of Hong Kong (CULATR No.: 3259-14)
(§2) We further validated the effect of BQ323636.1 overexpression in conferring tamoxifen resistance using a nude mouse model. […] Tumor sizes were measured by caliper and tumor volume was calculated as (length*width*width)/2. Tumor growth rate was expressed as the % of tumor volume change calculated as the tumor volume measured at the indicated time point normalized against the tumor volume at day 0*100%. […]

MCF7-vector = assay: Orthotopic nude mouse model, MCF7-vector; type: in vivo, nude mice; conditions: mammary fat pad, daily subcutaneous injection in peanut oil
Method: as §1, §2

ZR75-BQ323636.1 = assay: Orthotopic nude mouse model, ZR75-BQ323636.1; type: in vivo, nude mice; conditions: ZR75-BQ323636.1, mammary fat pad, daily subcutaneous injection in peanut oil
Method: as §1, §2

MCF7-BQ323636.1 = assay: Orthotopic nude mouse model, MCF7-BQ323636.1; type: in vivo, nude mice; conditions: MCF7-BQ323636.1, mammary fat pad, daily subcutaneous injection in peanut oil
Method: as §1, §2

Compound: CC/C(=C(\c1ccccc1)c1ccc(OCCN(C)C)cc1)c1ccccc1 [tamoxifen]
- tamoxifen resistance in MTT assay [1]: induced the tamoxifen resistance
- tumor growth versus solvent control group (ZR75-vector): significantly reduced tumor growth
- tumor growth versus solvent control group (MCF7-vector): significantly reduced tumor growth
- tumor growth versus solvent control group (ZR75-BQ323636.1): no change of tumor growth
- tumor growth versus solvent control group (MCF7-BQ323636.1): no change of tumor growth
